Test results taken from patent US10253002B2, “Compounds and methods of treating infections” (Neoculi Pty Ltd., priority 2013, dated 2019).

How the values were obtained:
Assay in all cases: Broth microdilution MIC, Example 7 (NCL812 and analogues)
MRSA = type: cell-based, Staphylococcus aureus; conditions: for MIC (μg/ml) at 24 hours, MRSA 1 / MIC (μg/ml) at 24 hours, MRSA 2: duplicate lines per compound; for activity against MRSA among analogues: MIC testing, two MRSA strains
How it was run: (§1)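 Turbidity read visually and then at 600 nm defined the MIC (μg/ml), comparing drug-containing wells with a growth-control well lacking antimicrobial. Testing followed the CLSI broth microdilution method, in duplicate, using two strains per organism group.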

VRE = type: cell-based, Enterococcus spp.; conditions: for MIC (μg/ml) at 24 hours, VRE 1 / MIC (μg/ml) at 24 hours, VRE 2: duplicate lines per compound; for activity against VRE among analogues: MIC testing, two VRE strains
How it was run: as §1

Escherichia coli = type: cell-based; conditions: E. coli; 24 hours; duplicate lines per compound
Pseudomonas aeruginosa = type: cell-based; conditions: P. aeruginosa; 24 hours; duplicate lines per compound

Row | SMILES | MIC (μg/ml) at 24 hours, MRSA 1 (MRSA) | MIC (μg/ml) at 24 hours, MRSA 2 (MRSA) | MIC (μg/ml) at 24 hours, VRE 1 (VRE) | MIC (μg/ml) at 24 hours, VRE 2 (VRE) | MIC (μg/ml) at 24 hours, E. coli (Escherichia coli) | MIC (μg/ml) at 24 hours, P. aeruginosa (Pseudomonas aeruginosa) | activity against MRSA among analogues (MRSA) | activity against VRE among analogues (VRE)
1 | Cl.N=C(NC(=O)c1ccccc1)N(N=Cc1ccccc1Cl)C(=O)c1ccccc1 [NCL090] | >128 µg/mL | >128 µg/mL | >128 µg/mL | >128 µg/mL | >128 µg/mL | >128 µg/mL | – | –
2 | FC(F)(F)c1ccc(-c2nnc(Nc3ccc(Cl)cc3)[nH]2)cc1 [NCL091] | >128 µg/mL | >128 µg/mL | >128 µg/mL | >128 µg/mL | >128 µg/mL | >128 µg/mL | – | –
3 | Clc1ccc(CNc2nnc(-c3ccc(Cl)cc3)[nH]2)cc1 [NCL092] | >128 µg/mL | >128 µg/mL | >128 µg/mL | >128 µg/mL | >128 µg/mL | >128 µg/mL | – | –
4 | Cl.N=C(NN=CC1CCCCC1)NN=CC1CCCCC1 [NCL094] | 128 µg/mL | 128 µg/mL | 64 µg/mL | 128 µg/mL | >128 µg/mL | >128 µg/mL | greatest activity | greatest activity
5 | Cl.N=C(NN=Cc1ccoc1)NN=Cc1ccoc1 [NCL095] | >128 µg/mL | >128 µg/mL | >128 µg/mL | >128 µg/mL | >128 µg/mL | >128 µg/mL | – | –
6 | Cl.N=C(N/N=C/C=C/c1ccccc1)N/N=C/C=C/c1ccccc1 [NCL096] | >128 µg/mL | >128 µg/mL | >128 µg/mL | >128 µg/mL | >128 µg/mL | >128 µg/mL | – | –
7 | Cl.N=C(NN=Cc1cccc(O)c1O)NN=Cc1cccc(O)c1O [NCL101] | 32 µg/mL | 32 µg/mL | 64 µg/mL | 128 µg/mL | >128 µg/mL | >128 µg/mL | greatest activity | greatest activity
8 | Cl.N=C(N/N=C/c1ccc(O)cc1O)N/N=C/c1ccc(O)cc1O [NCL103] | >128 µg/mL | >128 µg/mL | >128 µg/mL | >128 µg/mL | >128 µg/mL | >128 µg/mL | – | –
9 | Cl.N=C(NN=Cc1cc(O)c(O)cc1O)NN=Cc1cc(O)c(O)cc1O [NCL104] | 64 µg/mL | 64 µg/mL | 128 µg/mL | >128 µg/mL | >128 µg/mL | >128 µg/mL | greatest activity | –
10 | Cl.N=C(NN=Cc1ccc(O)c(O)c1O)NN=Cc1ccc(O)c(O)c1O [NCL105] | 64 µg/mL | >128 µg/mL | 64 µg/mL | >128 µg/mL | >128 µg/mL | >128 µg/mL | – | greatest activity
11 | COc1cc(C=NNC(=N)NN=Cc2cc(O)c(O)c(OC)c2)cc(O)c1O.Cl [NCL106] | >128 µg/mL | >128 µg/mL | >128 µg/mL | >128 µg/mL | >128 µg/mL | >128 µg/mL | – | –
12 | Cl.N=C(NN=Cc1ccc(O)c(O)c1)NN=Cc1ccc(O)c(O)c1 [NCL111] | 64 µg/mL | 64 µg/mL | 64 µg/mL | >128 µg/mL | >128 µg/mL | >128 µg/mL | greatest activity | greatest activity
13 | Cl.N=C(NN=Cc1cc(Cl)cc(Cl)c1)NN=Cc1cc(Cl)cc(Cl)c1 [NCL114] | >128 µg/mL | >128 µg/mL | >128 µg/mL | >128 µg/mL | >128 µg/mL | >128 µg/mL | – | –

Continued, in another order:

Row | MIC (μg/ml) at 24 hours, MRSA 1 (MRSA) | MIC (μg/ml) at 24 hours, MRSA 2 (MRSA) | MIC (μg/ml) at 24 hours, VRE 1 (VRE) | MIC (μg/ml) at 24 hours, VRE 2 (VRE) | MIC (μg/ml) at 24 hours, E. coli (Escherichia coli) | MIC (μg/ml) at 24 hours, P. aeruginosa (Pseudomonas aeruginosa) | SMILES | activity against MRSA among analogues (MRSA) | activity against VRE among analogues (VRE)
14 | >128 µg/mL | >128 µg/mL | >128 µg/mL | >128 µg/mL | >128 µg/mL | >128 µg/mL | Cl.N=C(N/N=C/c1ccc(Cl)cc1)N/N=C/c1cccc(Cl)c1 [NCL083] | – | –
15 | >128 µg/mL | >128 µg/mL | >128 µg/mL | >128 µg/mL | >128 µg/mL | >128 µg/mL | Cl.N#Cc1ccccc1C=NNC(=N)NN=Cc1ccc(Cl)cc1 [NCL085] | – | –
16 | >128 µg/mL | >128 µg/mL | >128 µg/mL | 128 µg/mL | >128 µg/mL | >128 µg/mL | Cl.N#Cc1cccc(C=NNC(=N)NN=Cc2ccc(Cl)cc2)c1 [NCL086] | – | –
17 | >128 µg/mL | >128 µg/mL | >128 µg/mL | >128 µg/mL | >128 µg/mL | >128 µg/mL | Cl.N#Cc1ccc(/C=N/NC(=N)N/N=C/c2ccc(Cl)cc2)cc1 [NCL087] | – | –
18 | 64 µg/mL | 128 µg/mL | 64 µg/mL | >128 µg/mL | >128 µg/mL | >128 µg/mL | Cl.N=C(N/N=C/c1ccc2ccccc2c1)N/N=C/c1ccc2ccccc2c1 [NCL093] | greatest activity | greatest activity
19 | >128 µg/mL | >128 µg/mL | >128 µg/mL | >128 µg/mL | >128 µg/mL | >128 µg/mL | Cl.N=C(NN=Cc1cccc(C(=O)O)c1)NN=Cc1cccc(C(=O)O)c1 [NCL098] | – | –
20 | >128 µg/mL | >128 µg/mL | >128 µg/mL | >128 µg/mL | >128 µg/mL | >128 µg/mL | Cl.N=C(N/N=C/c1ccccc1)N/N=C/c1ccccc1 [NCL100] | – | –
21 | >128 µg/mL | >128 µg/mL | >128 µg/mL | >128 µg/mL | >128 µg/mL | >128 µg/mL | Cl.N=C(NN=Cc1ccccc1[N+](=O)[O-])NN=Cc1ccccc1[N+](=O)[O-] [NCL102] | – | –
22 | 64 µg/mL | 64 µg/mL | 64 µg/mL | 128 µg/mL | >128 µg/mL | >128 µg/mL | Cl.N=C(NN=Cc1cccc(O)c1)NN=Cc1cccc(O)c1 [NCL108] | greatest activity | greatest activity
23 | >128 µg/mL | >128 µg/mL | >128 µg/mL | >128 µg/mL | >128 µg/mL | >128 µg/mL | Cl.N=C(N/N=C/c1cccc([N+](=O)[O-])c1)N/N=C/c1cccc([N+](=O)[O-])c1 [NCL109] | – | –
24 | >128 µg/mL | >128 µg/mL | >128 µg/mL | >128 µg/mL | >128 µg/mL | >128 µg/mL | Cl.N=C(NN=Cc1ccc([N+](=O)[O-])cc1)NN=Cc1ccc([N+](=O)[O-])cc1 [NCL110] | – | –
25 | >128 µg/mL | 128 µg/mL | 64 µg/mL | 32 µg/mL | >128 µg/mL | >128 µg/mL | Cl.N=C(NN=Cc1ccc(-c2ccccc2)cc1)NN=Cc1ccc(-c2ccccc2)cc1 [NCL112] | – | greatest activity
